27 molecules from BindingDB's records for doi:10.1016/s0960-894x(03)00205-1 (Abbott Laboratories, 2003) can be followed below.

Usually EC50 stands for the concentration that produces a half-maximal response.

This assay can be described thus: Potassium channel opening activity in vitro using LtK cells transfected with Kir6.2/SUR2B exon 17.
The molecule `CC(C)OC(=O)Nc1c(C(O)(C(F)(F)F)C(F)(F)F)ccc2ccccc12` [[2-(2,2,2-Trifluoro-1-hydroxy-1-trifluoromethyl-ethyl)-naphthalen-1-yl]-carbamic acid isopropyl ester] displayed an EC50 of 1.16 µM.

In turn, `COc1cccc(C(=O)Nc2c(C(O)(C(F)(F)F)C(F)(F)F)ccc3ccccc23)c1` [3-Methoxy-N-[2-(2,2,2-trifluoro-1-hydroxy-1-trifluoromethyl-ethyl)-naphthalen-1-yl]-benzamide] yielded an EC50 of 0.185 µM. On to `COc1ccc(C(=O)Nc2c(C(O)(C(F)(F)F)C(F)(F)F)ccc3ccccc23)cc1` [4-Methoxy-N-[2-(2,2,2-trifluoro-1-hydroxy-1-trifluoromethyl-ethyl)-naphthalen-1-yl]-benzamide], for which the response was half-maximal at 0.417 µM (EC50).

Consider `CC(C)=CC(=O)Nc1c(C(O)(C(F)(F)F)C(F)(F)F)ccc2ccccc12` [3-Methyl-but-2-enoic acid [2-(2,2,2-trifluoro-1-hydroxy-1-trifluoromethyl-ethyl)-naphthalen-1-yl]-amide], for which the EC50 was 0.046 µM. `CCC(CC)C(=O)Nc1c(C(O)(C(F)(F)F)C(F)(F)F)ccc2ccccc12` [2-Ethyl-N-[2-(2,2,2-trifluoro-1-hydroxy-1-trifluoromethyl-ethyl)-naphthalen-1-yl]-butyramide] displayed a 50% effective concentration (EC50) of 4.34 µM. Molecule `Cc1ccccc1C(=O)Nc1c(C(O)(C(F)(F)F)C(F)(F)F)ccc2ccccc12` [2-Methyl-N-[2-(2,2,2-trifluoro-1-hydroxy-1-trifluoromethyl-ethyl)-naphthalen-1-yl]-benzamide] had an EC50 of 5.55 µM. In the case of `CCC(=O)Nc1c(C(O)(C(F)(F)F)C(F)(F)F)ccc2ccccc12` [N-[2-(2,2,2-Trifluoro-1-hydroxy-1-trifluoromethyl-ethyl)-naphthalen-1-yl]-propionamide], the EC50 is 0.015 µM. The molecule `CCCC(=O)Nc1c(C(O)(C(F)(F)F)C(F)(F)F)ccc2ccccc12` [N-[2-(2,2,2-Trifluoro-1-hydroxy-1-trifluoromethyl-ethyl)-naphthalen-1-yl]-butyramide] came in with an EC50 of 0.131 µM. For the molecule `C/C=C/C(=O)Nc1c(C(O)(C(F)(F)F)C(F)(F)F)ccc2ccccc12` [But-2-enoic acid [2-(2,2,2-trifluoro-1-hydroxy-1-trifluoromethyl-ethyl)-naphthalen-1-yl]-amide], a half-maximal response (EC50) required 0.072 µM.

Molecule `O=C(CCc1ccccc1)Nc1c(C(O)(C(F)(F)F)C(F)(F)F)ccc2ccccc12` [3-Phenyl-N-[2-(2,2,2-trifluoro-1-hydroxy-1-trifluoromethyl-ethyl)-naphthalen-1-yl]-propionamide] showed an EC50 of 1.75 µM. The result for `Cc1cccc(C(=O)Nc2c(C(O)(C(F)(F)F)C(F)(F)F)ccc3ccccc23)c1` [3-Methyl-N-[2-(2,2,2-trifluoro-1-hydroxy-1-trifluoromethyl-ethyl)-naphthalen-1-yl]-benzamide] reads 0.023 µM; that for `CC(C)CCC(=O)Nc1c(C(O)(C(F)(F)F)C(F)(F)F)ccc2ccccc12` [4-Methyl-pentanoic acid [2-(2,2,2-trifluoro-1-hydroxy-1-trifluoromethyl-ethyl)-naphthalen-1-yl]-amide], 0.049 µM; that for `O=C(Nc1c(C(O)(C(F)(F)F)C(F)(F)F)ccc2ccccc12)c1ccco1` [Furan-2-carboxylic acid [2-(2,2,2-trifluoro-1-hydroxy-1-trifluoromethyl-ethyl)-naphthalen-1-yl]-amide], 0.009 µM. `O=C(Nc1c(C(O)(C(F)(F)F)C(F)(F)F)ccc2ccccc12)c1cccs1` [Thiophene-2-carboxylic acid [2-(2,2,2-trifluoro-1-hydroxy-1-trifluoromethyl-ethyl)-naphthalen-1-yl]-amide] displayed an EC50 of 0.012 µM. The result for `O=C(Nc1c(C(O)(C(F)(F)F)C(F)(F)F)ccc2ccccc12)c1cccnc1` [N-[2-(2,2,2-Trifluoro-1-hydroxy-1-trifluoromethyl-ethyl)-naphthalen-1-yl]-nicotinamide] reads 0.06 µM; that for `O=C(Nc1c(C(O)(C(F)(F)F)C(F)(F)F)ccc2ccccc12)c1ccc(F)cc1` [4-Fluoro-N-[2-(2,2,2-trifluoro-1-hydroxy-1-trifluoromethyl-ethyl)-naphthalen-1-yl]-benzamide], 0.07 µM; that for `O=C(Nc1ccc(Cl)cc1)Nc1c(C(O)(C(F)(F)F)C(F)(F)F)ccc2ccccc12` [1-(4-Chloro-phenyl)-3-[2-(2,2,2-trifluoro-1-hydroxy-1-trifluoromethyl-ethyl)-naphthalen-1-yl]-urea], 0.276 µM.

Molecule `CC(=O)Nc1c(C(O)(C(F)(F)F)C(F)(F)F)cc(Br)c2ccccc12` [N-[4-Bromo-2-(2,2,2-trifluoro-1-hydroxy-1-trifluoromethyl-ethyl)-naphthalen-1-yl]-acetamide] displayed an EC50 of 5.31 µM.

For the molecule `O=C(Nc1c(C(O)(C(F)(F)F)C(F)(F)F)ccc2ccccc12)c1cccc(Br)c1` [3-Bromo-N-[2-(2,2,2-trifluoro-1-hydroxy-1-trifluoromethyl-ethyl)-naphthalen-1-yl]-benzamide], the EC50 was 0.08 µM. `O=C(Nc1c(C(O)(C(F)(F)F)C(F)(F)F)ccc2ccccc12)c1cc(Cl)cc(Cl)c1` [3,5-Dichloro-N-[2-(2,2,2-trifluoro-1-hydroxy-1-trifluoromethyl-ethyl)-naphthalen-1-yl]-benzamide] showed an EC50 of 0.306 µM. Next, `O=C(Nc1c(C(O)(C(F)(F)F)C(F)(F)F)ccc2ccccc12)c1ccc(OC(F)(F)F)cc1` [N-[2-(2,2,2-Trifluoro-1-hydroxy-1-trifluoromethyl-ethyl)-naphthalen-1-yl]-4-trifluoromethoxy-benzamide]: over 10 µM. Take `O=C(Nc1c(C(O)(C(F)(F)F)C(F)(F)F)ccc2ccccc12)c1ccccc1` [N-[2-(2,2,2-Trifluoro-1-hydroxy-1-trifluoromethyl-ethyl)-naphthalen-1-yl]-benzamide]: the EC50 worked out at 0.044 µM. The molecule `O=C(Nc1c(C(O)(C(F)(F)F)C(F)(F)F)ccc2ccccc12)c1ccc(-c2ccccc2)cc1` [Biphenyl-4-carboxylic acid [2-(2,2,2-trifluoro-1-hydroxy-1-trifluoromethyl-ethyl)-naphthalen-1-yl]-amide] yielded an EC50 of over 10 µM.

Turning to `O=C(Nc1c(C(O)(C(F)(F)F)C(F)(F)F)ccc2ccccc12)c1cccc(Cl)c1Cl` [2,3-Dichloro-N-[2-(2,2,2-trifluoro-1-hydroxy-1-trifluoromethyl-ethyl)-naphthalen-1-yl]-benzamide], the EC50 is over 10 µM. In turn, `N#Cc1cccc(C(=O)Nc2c(C(O)(C(F)(F)F)C(F)(F)F)ccc3ccccc23)c1` [3-Cyano-N-[2-(2,2,2-trifluoro-1-hydroxy-1-trifluoromethyl-ethyl)-naphthalen-1-yl]-benzamide] came in with an EC50 of 0.012 µM. Turning to `O=C(Nc1c(C(O)(C(F)(F)F)C(F)(F)F)ccc2ccccc12)c1cnc2ccccc2n1` [Quinoxaline-2-carboxylic acid [2-(2,2,2-trifluoro-1-hydroxy-1-trifluoromethyl-ethyl)-naphthalen-1-yl]-amide], the concentration giving a half-maximal response (EC50) amounted to 0.317 µM. On to `O=C(Nc1c(C(O)(C(F)(F)F)C(F)(F)F)ccc2ccccc12)c1cccc([N+](=O)[O-])c1` [3-Nitro-N-[2-(2,2,2-trifluoro-1-hydroxy-1-trifluoromethyl-ethyl)-naphthalen-1-yl]-benzamide], for which a half-maximal effect (EC50) was put at 0.117 µM.
